From ChEMBL document CHEMBL1201862, “PubChem BioAssay data set” (2004)
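Where inhibition never reached the appropriate level, the endpoint shown equals the highest concentration tested. Otherwise, values were interpolated linearly from a five-concentration, 48-hour dose response in 96-well plates. GI50 is the concentration that inhibits growth by half.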 The source made the active and inactive calls. No stated cut-off is given here; in the data, active = GI50 up to about 1.1 µM and inactive = higher.

Legend:
Assay in all cases: inhibition of tumour cell growth, NCI panel, 48 h
786-0 = tested on: 786-0
DLD-1 = tested on: DLD-1
RXF 631 = tested on: RXF 631
BT-549 = tested on: BT-549
DU-145 = tested on: DU-145
MCF7 = tested on: MCF7
MDA-MB-231 = tested on: MDA-MB-231
MDA-MB-435 = tested on: MDA-MB-435
HOP-18 = tested on: HOP-18

Measured: GI50

COc1cc(OC)cc(N2CCC(c3c(N)nc(N)nc3Cl)CC2)c1
inactive: 786-0 > 100 µM | DLD-1 75.7 µM | RXF 631 > 100 µM

CCOC(=O)N1CCN(Cc2cc(=O)n3cc(C)ccc3n2)CC1
inactive: 786-0 > 100 µM | BT-549 > 100 µM | DU-145 > 100 µM | MCF7 > 100 µM | MDA-MB-231 > 100 µM | MDA-MB-435 > 100 µM

CC1CC(c2ccc([N+](=O)[O-])cc2)=Nc2ccccc2[S+]1[O-] (stereo not drawn)
inactive: DLD-1 14.3 µM | RXF 631 20.8 µM

C=C(CO)C(=O)OC1CC(=C)C2CC(O)C(C)C2C2OC(=O)C(=C)C12 (stereo not drawn)
inactive: 786-0 37.3 µM | BT-549 14.9 µM | DU-145 42.5 µM | MCF7 18.3 µM | MDA-MB-231 20 µM | MDA-MB-435 21.2 µM

NC(=O)c1ncn2c1CNC(=O)C2
inactive: BT-549 > 100 µM | DU-145 > 100 µM | MCF7 > 100 µM | MDA-MB-231 > 100 µM | MDA-MB-435 > 100 µM

CCCCCCNC(=O)C(C)C1CCC2(C)C=CC(=O)C(C)=C2C1O (stereo not drawn)
inactive: DLD-1 > 100 µM | HOP-18 > 100 µM | MCF7 > 100 µM

Nc1nc(Cl)cc(NCCCNc2cc(Cl)nc(N)n2)n1
inactive: DLD-1 > 100 µM | HOP-18 > 100 µM | RXF 631 > 100 µM

Cc1cc2c(=O)c3ccccc3[nH]c2c(C(N)=O)c1C
inactive: 786-0 > 100 µM | DLD-1 > 100 µM | HOP-18 > 100 µM | RXF 631 > 100 µM

CC1(C)C(=O)OC(n2cc(F)c(=O)[nH]c2=O)C1=O (stereo not drawn)
inactive: 786-0 > 100 µM | DLD-1 > 100 µM | HOP-18 > 100 µM

CN1CCC(C(=O)NNc2ccccc2)CC1
inactive: DLD-1 12.8 µM | HOP-18 > 61.5 µM

Cc1c2ccccc2c(CO)c2cc(F)c3ccccc3c12
inactive: DLD-1 14.8 µM | HOP-18 28.5 µM | RXF 631 16.7 µM

C#CCCCCC#Cc1ccccc1C(=O)OC
inactive: DLD-1 47.2 µM | HOP-18 > 100 µM

COc1ccc(/C=C/C(=O)C(C)(C)C)cc1OC
inactive: DLD-1 65.9 µM

Cc1ccc2c(O)cc(-c3ccc(F)cc3)nc2n1
inactive: BT-549 86.3 µM | DU-145 81.7 µM | MCF7 26.4 µM | MDA-MB-231 63 µM

Cc1coc2c1C[C@@]1(C)[C@H](CCC[C@@H]1C)[C@H]2O
inactive: DU-145 11.9 µM | MCF7 52.7 µM | MDA-MB-231 20.7 µM | MDA-MB-435 30.1 µM

COc1cc2c(cc1O)CCN(C)[C@H]2Cc1ccc(Oc2c(O)c(OC)cc3c2C[C@H]2c4c(c(OC)c(OC)c(OC)c4-3)CCN2C)cc1 [THALIFABERIDINE]
inactive: 786-0 4.53 µM | BT-549 5.75 µM | DU-145 6.34 µM | MCF7 5.13 µM | MDA-MB-231 3.04 µM | MDA-MB-435 3.51 µM

NCC[Se][Se]CCN
inactive: 786-0 14 µM | BT-549 14.4 µM | DU-145 11.6 µM | MCF7 8.79 µM | MDA-MB-231 12.8 µM | MDA-MB-435 12.3 µM
